The supplement of paper PMC10307832

Legend:
Test in all cases: relative viability (nuclei count vs DMSO), 5 days (fraction); higher = more cells survive
[1] = compound: C1=CC2=C(C=C(C(=C2N=C1)O)N=NC3=CC4=C(C=C3)C=C(C=C4)S(=O)(=O)O)S(=O)(=O)O + N=C(N)NC(=N)NCCc1ccccc1 [Phenformin] (partner 250 µM)
How it was run: (§1)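 Relative viability was taken as the ratio of nuclei in treated wells to nuclei in vehicle wells. Lung cancer cell lines in 1536-well plates received compounds by pin tool one day after seeding, either one drug alone or a fixed anchor-drug dose plus five library-drug doses (not always all listed) in √10 steps. Nuclei were counted on 4× images after 5 days of treatment, and values are medians of duplicate plates.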

[2] = compound: C1=CC2=C(C=C(C(=C2N=C1)O)N=NC3=CC4=C(C=C3)C=C(C=C4)S(=O)(=O)O)S(=O)(=O)O + CC(=O)Nc1cccc(-n2c(=O)n(C3CC3)c(=O)c3c(Nc4ccc(I)cc4F)n(C)c(=O)c(C)c32)c1 [Trametinib] (partner 0.02 µM)
How it was run: as §1

[3] = compound: O=C(NC1CCNCC1)c1n[nH]cc1NC(=O)c1c(Cl)cccc1Cl [AT-7519] + CC1(C)CCC(c2ccc(Cl)cc2)=C(CN2CCN(c3ccc(C(=O)NS(=O)(=O)c4ccc(N[C@H](CCN5CCOCC5)CSc5ccccc5)c(S(=O)(=O)C(F)(F)F)c4)cc3)CC2)C1 [Navitoclax] (partner 0.5 µM)
How it was run: as §1

[4] = compound: C1=CC2=C(C=C(C(=C2N=C1)O)N=NC3=CC4=C(C=C3)C=C(C=C4)S(=O)(=O)O)S(=O)(=O)O + Nc1ncn([C@H]2C[C@H](O)[C@@H](CO)O2)c(=O)n1 [Decitabine] (partner 2 µM)
How it was run: as §1

Cell Line | relative viability ([1]; first compound 0.08 µM) | relative viability ([1]; first compound 0.253 µM) | relative viability ([1]; first compound 0.8 µM) | relative viability ([1]; first compound 2.53 µM) | relative viability ([1]; first compound 8 µM) | relative viability ([2]; first compound 0.08 µM) | relative viability ([2]; first compound 0.253 µM) | relative viability ([2]; first compound 0.8 µM) | relative viability ([2]; first compound 2.53 µM) | relative viability ([2]; first compound 8 µM) | relative viability ([3]; first compound 0.01 µM) | relative viability ([3]; first compound 0.03162 µM) | relative viability ([3]; first compound 0.3162 µM) | relative viability ([3]; first compound 1 µM) | relative viability ([4]; first compound 0.08 µM) | relative viability ([4]; first compound 0.253 µM) | relative viability ([4]; first compound 0.8 µM) | relative viability ([4]; first compound 2.53 µM) | relative viability ([4]; first compound 8 µM)
CAL-12T | 0.536 | 0.522 | 0.502 | 0.693 | 0.358 | 0.369 | 0.332 | 0.318 | 0.332 | 0.28 | 1.21 | 1.05 | 0.855 | 0.128 |  |  |  |  | 
RERF-LC-KJ | 0.439 | 0.39 | 0.435 | 0.439 | 0.43 | 0.935 | 0.864 | 0.849 | 0.96 | 0.644 | 1.04 | 0.981 | 0.848 | 0.408 | 0.654 | 0.684 | 0.637 | 0.761 | 0.631
NCI-H1650 | 0.427 | 0.444 | 0.42 | 0.418 | 0.322 | 0.672 | 0.547 | 0.512 | 0.682 | 0.433 | 1.32 | 1.21 | 1.2 | 0.291 | 0.438 | 0.37 | 0.511 | 0.447 | 0.318
BEN | 0.254 | 0.274 | 0.267 | 0.298 | 0.234 | 1.1 | 1.1 | 0.948 | 1.07 | 1.05 | 0.0644 | 0.0591 | 0.069 | 0.0528 | 0.735 | 0.745 | 0.635 | 0.804 | 0.688
EMC-BAC-2 | 0.587 | 0.561 | 0.514 | 0.526 | 0.427 | 0.964 | 0.853 | 0.912 | 0.997 | 0.911 | 0.89 | 1.02 | 1.05 | 1.18 | 1.03 | 0.991 | 0.953 | 1.05 | 0.98
LU99A | 0.989 | 0.796 | 0.869 | 0.721 | 0.631 | 0.582 | 0.502 | 0.505 | 0.548 | 0.646 | 0.846 | 0.782 | 0.745 | 0.382 | 0.91 | 0.818 | 0.767 | 0.838 | 0.705
ABC-1 | 0.236 | 0.245 | 0.236 | 0.237 | 0.245 |  |  |  |  |  |  |  |  |  | 1.14 | 1.16 | 0.936 | 1.39 | 1.09
